Reference: PMC8856110, “Comparative chemical and biological hydrolytic stability of homologous esters and isosteres” (Journal of Enzyme Inhibition and Medicinal Chemistry, 2022)
Like-named read-outs stand apart in the source and are kept apart here.

Tests used:
[1] = Rat plasma hydrolytic study; details: for half-life at 500 μM: male, Wistar, rat, rat plasma (80% in phosphate buffer), pH 7.4
Procedure: (§1) Rat plasma was obtained from male Wistar rats’ blood and diluted in phosphate buffer (pH 7.4) to obtain a final plasma concentration of 80%. […] The sample was incubated at 37 °C for 5, 10, 20, and 30 min, under stirring. At the end of the incubation time, the reaction was stopped by adding methanol (500 μL) and acetonitrile (500 μL), both in ice-cold temperature. The mixture was centrifuged at 13.500 rpm for 15 min at 4 °C. The organic phase was transferred to a microtube, and the IS (1.25 µL) was added. Finally, the samples were filtered through PVDF syringe filters (Millex®: 0.22 µm pore size) and analysed by HPLC[16].
(§2) A Shimadzu Prominence HPLC system (Shimadzu, Tokyo, Japan) consisting of a UV/VIS Photodiode Array Detector (SPD-M20A), a binary pump (LC-20AD), a vacuum degasser (DGU-20A5), and an autosampler (SIL-20A) was used for analyses. The Chromatographic separation was achieved using a reversed phase (Kromasil® C18 HPLC Column: particle size 5 µm, L × I.D. 250 × 4.6 mm) preceded by a guard column (Phenomenex® C18: 4 × 3 mm). The column was held at ambient temperature (22 ± 2 °C). For the selection of the wavelength, the diode array-detector was used. To avoid interference with impurities, the longest suitable wavelength was chosen to evaluate the chromatograms, which allowed for sensitivity. The mobile phase was a combination of eluent A (0.1% formic acid) and eluent B (acetonitrile). Three mobile phases were carried out using an injection volume of 20 µL and an flow rate set at 1.0 ml/min. […] A:B 40:60 v/v. […] A:B 90:10 v/v; 4–8 min. linear-gradient from 90% A to A:B 60:40 v/v; 8–12 min. A:B 60:40 v/v.
(§3) The biologic hydrolysis of the esters 1–12 was carried out using rat plasma and rat liver microsomes. Each compound's half-life (t1/2) was calculated using the expression t1/2 = 0.693/a, as previously described.

[2] = Base-catalysed (alkaline) hydrolysis with LiOH in THF:H2O; details: for half-life at 2.5 g/L: LiOH in tetrahydrofuran/water (6:4)
Procedure: (§4) The reaction was started by adding LiOH (24 μL, 1 mol/l), and the mixture was incubated at 37 °C for 5, 10, 20, and 30 min, under stirring in a water bath. At the end of the incubation period, an aliquot (20 μL) was transferred to a new tube, and subsequently, HCl (0.3 μL, 10% v:v) was added. The pH of the sample was checked to verify neutralisation, and acetonitrile (480 μL) was added. The final concentrations of all compounds in the solution were 2,5 g/L. Finally, the samples were filtered through PVDF syringe filters (Millex®: 0.22 µm pore size) and analysed by HPLC[15].
as §2
(§5) The time in minutes required to reduce half the initial amount of each ester compound (i.e., half-life - t1/2) was calculated using the expression t1/2 = 0.693/a, with "a" being the slope of the natural log of concentration of the sample vs. the incubation time.

[3] = Hydrolytic study using rat liver microsomes; assay type: in vitro ADME; details: male, Wistar, 1 mg/mL microsomal fraction, absence of cofactor, 37 °C, read-out: Hydrolysis t1/2 Rat liver microsomes
Procedure: Rat liver microsomes were obtained from male Wistar rats (280–330 g) and prepared according to the methodology described by Cabrera and co-workers[17]. After obtaining rat liver microsomes, the protein quantification was done by a bicinchoninic acid assay using a commercial protein determination kit obtained from Sigma-Aldrich (St Louis MO, USA)[18]. […] The reaction was stopped by adding organic solvents at ice-cold temperature (i.e., 500 µL of methanol and 500 µL of acetonitrile).
(ii) Compounds 8–9: 0–15 min. A:B 40:60 v/v. (iii) Compounds 13–16: 0–4 min. […] A:B 60:40 v/v.
Given those results, we decided to study the comparative metabolic behaviour of the esters 1 and 2, 5 and 6, 11 and 12, using another biological matrix rich in carboxylesterases. Therefore, the kinetics of hydrolysis was established using rat liver microsomes in the absence of cofactor in order to prevent eventual oxidative metabolic reactions catalysed by CYP450 or FMO.

[4] = pH 7.4
Procedure: as §1, §2, §3

[5] = buffer
Procedure: as §4, §2, §5

carboxylesterase (CES) = assay: Enzymatic inhibition study in rat plasma with CES inhibitor bis(p-nitrophenyl)phosphate; assay type: in vitro ADME; details: bis(p-nitrophenyl)phosphate 1, 10, 100 µM; ester 500 µM, 90 min
Procedure: The inhibitor was pre-incubated for 30 min at 37 °C, with (i) plasma (ii) rat liver microsomes and phosphate buffer pH 7,4 (final volume of 250 µL). […] The mixture was incubated again at 37 °C for 90 min under agitation. The analysis was performed by the same HPLC method used in the previous experiments. […] Data were expressed as percentages of inhibition.

[6] = Hydrolysis t1/2 Alkaline, LiOH, THF:H2O, 37 °C

| Compound | half-life at 500 μM [1] [min] | half-life at 2.5 g/L [2] [min] | half-life [3] [min] | further results |
| --- | --- | --- | --- | --- |
| CCOC(=O)c1ncn2c1CN(C)C(=O)c1cc(F)ccc1-2 [Compound 15, flumazenil, reference compound] | 89 | – | – | Times less stable to plasma hydrolysis than methyl homologous 16 ([1]; rat plasma, versus 16): 2.7 times |
| COC(=O)c1ccccc1 [Compound 1, methyl benzoate] | 36 | 14 | 15 | – |
| CCCOC(=O)c1ccccc1 [Compound 3, n-propyl benzoate] | 10 | 19 | – | – |
| CCOC(=O)c1cccc(Br)c1 [Compound 11, ethyl 3-bromobenzoate] | 11 | 25 | 12 | – |
| O=C(Oc1ccccc1)c1ccccc1 [Compound 5, phenyl benzoate] | 7 | 11 | 10 | – |
| CCOC(=O)c1ccc(Br)cc1 [Compound 12, ethyl 4-bromobenzoate] | 12 | 12 | 10 | – |
| O=C(OCc1ccccc1)c1ccccc1 [Compound 6, benzyl benzoate] | 12 | 16 | 13 | – |
| CCOC(=O)c1ccccc1Br [Compound 10, ethyl 2-bromobenzoate] | 10 | 15 | – | – |
| COC(=O)c1ccc(N)cc1 [Compound 14, methyl 4-aminobenzoate] | 27 | – | – | – |
| methyl 2-naphthoate [Compound 7] | – | – | – | Hydrolysis t1/2 Rat plasma [4]: 17 min; Hydrolysis t1/2 Alkaline [5]: 29 min |
| CCOC(=O)c1ccccc1 [Compound 2, ethyl benzoate] | 17 | – | 12 | half-life at 2.5 g/L [2, 6]: 15 min; Hydrolysis t1/2 Alkaline ([2]; LiOH, THF:H2O, 37 °C): 14 min; Metabolism in rat plasma in the presence of the CES inhibitor (carboxylesterase (CES)): strongly reduced |
| CCOC(=O)c1ccc(N)cc1 [Compound 13, ethyl 4-aminobenzoate, reference compound] | 13 | – | – | – |
| COC(=O)c1ncn2c1CN(C)C(=O)c1cc(F)ccc1-2 [Compound 16, methyl 8-fluoro-5-methyl-6-oxo-4H-imidazo[1,5-a][1,4]benzodiazepine-3-carboxylate] | 238 | – | – | – |
| COC(=O)Cc1ccccc1 [Compound 8, methyl 2-phenylacetate] | 3 | – | – | half-life at 2.5 g/L [2, 6]: 39 min; Loss of plasma metabolic stability relative to ester 1 ([1]; rat plasma, versus ester 1): twelve times less stable |
| CC(=O)Oc1ccccc1 [Compound 9] | 19 | – | – | half-life at 2.5 g/L [2, 6]: 58 min |
| CCCCOC(=O)c1ccccc1 [Compound 4, n-butyl benzoate] | 10 | 21 | – | – |
